From ChEMBL document CHEMBL5241095, “Developments of CRBN-based PROTACs as potential therapeutic agents” (Eur J Med Chem, 2021)

Assays:
MOLM-13 = assay: Antiproliferative activity against human MOLM-13 cells assessed as cell growth inhibition; assay type: functional, cell-based
MV4-11 = assay: Antiproliferative activity against human MV4-11 cells assessed as cell growth inhibition; assay type: functional, cell-based
RS4-11 = assay: Antiproliferative activity against human RS4-11 cells assessed as cell growth inhibition; assay type: functional, cell-based
[1] = target: RAC-gamma serine/threonine-protein kinase (Homo sapiens, UniProt Q9Y243); assay: Inhibition of Akt3 (unknown origin)
Sequence of RAC-gamma serine/threonine-protein kinase (Q9Y243 whole entry): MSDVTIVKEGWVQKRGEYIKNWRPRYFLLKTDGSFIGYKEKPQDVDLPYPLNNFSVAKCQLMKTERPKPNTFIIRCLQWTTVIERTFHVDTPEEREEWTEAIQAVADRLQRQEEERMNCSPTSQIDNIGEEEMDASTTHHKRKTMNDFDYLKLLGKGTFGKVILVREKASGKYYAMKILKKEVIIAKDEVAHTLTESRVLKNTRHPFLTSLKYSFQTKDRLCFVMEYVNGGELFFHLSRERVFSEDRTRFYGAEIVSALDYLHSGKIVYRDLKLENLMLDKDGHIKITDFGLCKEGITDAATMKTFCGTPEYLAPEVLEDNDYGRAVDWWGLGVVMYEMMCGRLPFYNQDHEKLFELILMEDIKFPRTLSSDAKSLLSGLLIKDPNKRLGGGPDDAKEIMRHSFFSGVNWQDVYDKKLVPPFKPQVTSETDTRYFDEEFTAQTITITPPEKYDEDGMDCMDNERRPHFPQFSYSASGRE

[2] = target: RAC-alpha serine/threonine-protein kinase (Homo sapiens, UniProt P31749); assay: Inhibition of Akt1 (unknown origin)
[3] = target: Protein cereblon/Interleukin-1 receptor-associated kinase 4 (Homo sapiens) (UniProt Q9NWZ3+Q96SW2); assay: Protac activity at CRBN/IRAK4 in HEK293T cells at 405 nM measured after 24 hrs by immunoblotting analysis relative to control; assay type: cell-based
Protein cereblon = Protein cereblon (Homo sapiens, UniProt Q96SW2); assay: Binding affinity to CRBN (unknown origin) by Tr-FRET assay
[4] = target: Protein cereblon/Retinal rod rhodopsin-sensitive cGMP 3',5'-cyclic phosphodiesterase subunit delta (Homo sapiens) (UniProt O43924+Q96SW2); assay: Protac activity at CRBN/PDE6D in human Jurkat cells at […] incubated for 24 hrs by immunoblotting analysis relative to control; assay type: cell-based
[5] = target: Protein cereblon/Cyclin-dependent kinase 6 (Homo sapiens) (UniProt Q00534+Q96SW2); assay: Protac activity at CRBN/CDK6 in human MM1.S cells at […] relative to control; assay type: cell-based
[6] = target: Protein cereblon/Cyclin-dependent kinase 4 (Homo sapiens) (UniProt P11802+Q96SW2); assay: Protac activity at CRBN/CDK4 in human MM1.S cells at […] relative to control; assay type: cell-based
Protein cereblon/Basigin [7] = target: T1, Protein cereblon/Basigin (Homo sapiens, UniProt P35613+Q96SW2); assay: Protac activity at CRBN/CD147 in human SK-MEL-28 cells by Western blotting analysis; assay type: cell-based
T1 sequence (P35613 whole entry): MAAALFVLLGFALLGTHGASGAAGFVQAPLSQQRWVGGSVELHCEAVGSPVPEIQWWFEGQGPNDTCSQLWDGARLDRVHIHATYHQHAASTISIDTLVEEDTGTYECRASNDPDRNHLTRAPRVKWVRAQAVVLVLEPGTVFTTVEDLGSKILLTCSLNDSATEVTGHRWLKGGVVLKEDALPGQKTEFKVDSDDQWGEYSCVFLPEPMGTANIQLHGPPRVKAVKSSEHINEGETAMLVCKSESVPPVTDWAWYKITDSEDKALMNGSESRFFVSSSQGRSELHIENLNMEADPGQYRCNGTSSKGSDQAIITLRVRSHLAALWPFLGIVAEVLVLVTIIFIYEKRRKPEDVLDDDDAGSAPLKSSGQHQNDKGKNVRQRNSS
T1 sequence (Q96SW2 whole entry): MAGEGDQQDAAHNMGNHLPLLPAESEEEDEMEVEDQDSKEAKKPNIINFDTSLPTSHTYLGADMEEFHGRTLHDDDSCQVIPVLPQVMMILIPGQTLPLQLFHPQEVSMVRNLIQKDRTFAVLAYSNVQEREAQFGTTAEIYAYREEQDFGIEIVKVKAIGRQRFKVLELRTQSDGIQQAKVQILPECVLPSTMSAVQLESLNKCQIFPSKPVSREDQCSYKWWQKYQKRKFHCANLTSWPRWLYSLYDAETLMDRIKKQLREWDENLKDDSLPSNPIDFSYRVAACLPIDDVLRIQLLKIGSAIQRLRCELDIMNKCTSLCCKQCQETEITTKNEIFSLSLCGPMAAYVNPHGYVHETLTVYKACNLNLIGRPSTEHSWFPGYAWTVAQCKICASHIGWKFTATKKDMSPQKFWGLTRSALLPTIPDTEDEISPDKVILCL

[8] = target: T2, Protein cereblon/Bcl-2-like protein 1 (Homo sapiens, UniProt Q07817+Q96SW2); assay: Protac activity at CRBN/BCL-XL in human WI-38 cells; assay type: cell-based
[9] = target: T2, Protein cereblon/Bcl-2-like protein 1; assay: Protac activity at CRBN/BCL-XL in human WI-38 cells relative to control; assay type: cell-based
[10] = target: Protein cereblon/Protein deacetylase HDAC6 (Homo sapiens, UniProt Q9UBN7+Q96SW2); assay: Protac activity at CRBN/HDAC6 in human MM1.S cells incubated for 5 hrs by ELISA analysis; assay type: cell-based
Sequence of Protein cereblon/Protein deacetylase HDAC6 (Homo sapiens, UniProt Q9UBN7+Q96SW2) (Q9UBN7 whole entry): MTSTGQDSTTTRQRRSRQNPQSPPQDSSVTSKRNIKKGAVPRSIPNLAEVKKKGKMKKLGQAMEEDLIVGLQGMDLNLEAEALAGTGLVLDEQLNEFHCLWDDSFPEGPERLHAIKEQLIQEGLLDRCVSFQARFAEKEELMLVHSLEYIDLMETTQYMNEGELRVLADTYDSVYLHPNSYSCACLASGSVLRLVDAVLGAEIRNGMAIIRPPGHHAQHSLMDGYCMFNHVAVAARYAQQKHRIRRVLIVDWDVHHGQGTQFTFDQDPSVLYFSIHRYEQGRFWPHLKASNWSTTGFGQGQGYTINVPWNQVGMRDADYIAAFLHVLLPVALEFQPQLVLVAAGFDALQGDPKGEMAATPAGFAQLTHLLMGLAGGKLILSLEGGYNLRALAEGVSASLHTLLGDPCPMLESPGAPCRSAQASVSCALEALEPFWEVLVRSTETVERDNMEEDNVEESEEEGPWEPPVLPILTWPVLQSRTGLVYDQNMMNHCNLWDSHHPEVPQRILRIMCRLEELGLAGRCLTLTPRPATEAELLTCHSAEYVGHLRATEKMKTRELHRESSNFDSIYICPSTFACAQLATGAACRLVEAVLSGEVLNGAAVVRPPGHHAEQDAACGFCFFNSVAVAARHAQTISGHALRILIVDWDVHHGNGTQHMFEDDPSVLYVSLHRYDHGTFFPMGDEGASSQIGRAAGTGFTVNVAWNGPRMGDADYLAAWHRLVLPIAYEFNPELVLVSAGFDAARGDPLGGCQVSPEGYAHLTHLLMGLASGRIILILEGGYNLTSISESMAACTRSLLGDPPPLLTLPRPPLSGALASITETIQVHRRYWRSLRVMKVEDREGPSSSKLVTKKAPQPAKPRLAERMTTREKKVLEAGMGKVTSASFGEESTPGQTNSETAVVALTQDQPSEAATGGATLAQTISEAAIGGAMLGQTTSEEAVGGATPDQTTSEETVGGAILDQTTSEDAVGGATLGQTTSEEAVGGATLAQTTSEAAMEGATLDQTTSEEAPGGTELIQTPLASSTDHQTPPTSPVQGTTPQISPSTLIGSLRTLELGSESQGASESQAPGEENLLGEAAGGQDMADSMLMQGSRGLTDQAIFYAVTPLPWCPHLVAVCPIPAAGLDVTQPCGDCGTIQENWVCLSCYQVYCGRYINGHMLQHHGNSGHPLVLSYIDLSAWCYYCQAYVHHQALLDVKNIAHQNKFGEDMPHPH
Sequence of Protein cereblon/Protein deacetylase HDAC6 (Homo sapiens, UniProt Q9UBN7+Q96SW2) (Q96SW2 whole entry): as the sequence (Q96SW2 whole entry) above

[11] = target: T3, Protein cereblon/Signal transducer and activator of transcription 3 (Homo sapiens) (UniProt P40763+Q96SW2); assay: Protac activity at CRBN/STAT3 in human DEL cells at 250 nM measured after 7 hrs by immunoblotting analysis relative to control; assay type: cell-based
T3 sequence (P40763 2-770 limits assumed): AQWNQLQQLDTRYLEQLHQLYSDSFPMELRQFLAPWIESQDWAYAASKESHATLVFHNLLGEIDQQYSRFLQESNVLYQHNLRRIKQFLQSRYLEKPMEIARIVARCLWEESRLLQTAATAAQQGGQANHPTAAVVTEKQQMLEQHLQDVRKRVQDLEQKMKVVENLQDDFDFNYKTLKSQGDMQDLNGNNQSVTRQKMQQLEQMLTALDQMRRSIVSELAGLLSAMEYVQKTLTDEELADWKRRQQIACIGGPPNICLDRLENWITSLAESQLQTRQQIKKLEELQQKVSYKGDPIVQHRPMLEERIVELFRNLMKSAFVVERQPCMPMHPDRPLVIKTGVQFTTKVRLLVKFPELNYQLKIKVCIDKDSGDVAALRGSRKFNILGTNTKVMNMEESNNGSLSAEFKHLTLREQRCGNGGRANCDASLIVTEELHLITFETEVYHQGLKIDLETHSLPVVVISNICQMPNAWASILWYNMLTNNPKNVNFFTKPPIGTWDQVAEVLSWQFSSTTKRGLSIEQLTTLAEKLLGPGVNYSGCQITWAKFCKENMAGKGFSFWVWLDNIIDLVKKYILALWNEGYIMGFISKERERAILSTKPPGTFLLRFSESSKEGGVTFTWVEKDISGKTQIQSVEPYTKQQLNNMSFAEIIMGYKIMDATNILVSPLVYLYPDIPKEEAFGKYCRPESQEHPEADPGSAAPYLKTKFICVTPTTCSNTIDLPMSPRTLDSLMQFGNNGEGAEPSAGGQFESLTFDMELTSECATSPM
T3 sequence (Q96SW2 whole entry partner): as the sequence (Q96SW2 whole entry) above

[12] = target: T3, Protein cereblon/Signal transducer and activator of transcription 3 (Homo sapiens); assay: Protac activity at CRBN/STAT3 in human MOLM16 cells at 250 nM measured after 4 hrs by immunoblotting analysis relative to control; assay type: cell-based
[13] = target: T3, Protein cereblon/Signal transducer and activator of transcription 3 (Homo sapiens); assay: Protac activity at CRBN/STAT3 in human SU-DHL-1 cells at 250 nM measured after 7 hrs by immunoblotting analysis relative to control; assay type: cell-based
[14] = target: T3, Protein cereblon/Signal transducer and activator of transcription 3 (Homo sapiens); assay: Protac activity at CRBN/STAT3 in human Ki-JK cells at 250 nM measured after 7 hrs by immunoblotting analysis relative to control; assay type: cell-based
[15] = Antiproliferative activity against human MCL cells assessed as cell growth inhibition; assay type: functional, cell-based
[16] = target: Protein cereblon/Protein deacetylase HDAC6 (Homo sapiens, UniProt Q96SW2+Q9UBN7); assay: Protac activity at CRBN/HDAC6 in human MM1.S cells incubated for 24 hrs by Immunoblotting analysis; assay type: cell-based
Protein cereblon/Basigin [17] = target: T1, Protein cereblon/Basigin; assay: Protac activity at CRBN/CD147 in human BV-173 cells by Western blotting analysis; assay type: cell-based
[18] = target: Protein cereblon/Cyclin-dependent kinase 9 (Homo sapiens) (UniProt P50750+Q96SW2); assay: Protac activity at CRBN/CDK9 in human HCT-116 cells at 20 uM relative to control; assay type: cell-based
Sequence of Protein cereblon/Cyclin-dependent kinase 9 (Homo sapiens) (P50750 whole entry, looked up): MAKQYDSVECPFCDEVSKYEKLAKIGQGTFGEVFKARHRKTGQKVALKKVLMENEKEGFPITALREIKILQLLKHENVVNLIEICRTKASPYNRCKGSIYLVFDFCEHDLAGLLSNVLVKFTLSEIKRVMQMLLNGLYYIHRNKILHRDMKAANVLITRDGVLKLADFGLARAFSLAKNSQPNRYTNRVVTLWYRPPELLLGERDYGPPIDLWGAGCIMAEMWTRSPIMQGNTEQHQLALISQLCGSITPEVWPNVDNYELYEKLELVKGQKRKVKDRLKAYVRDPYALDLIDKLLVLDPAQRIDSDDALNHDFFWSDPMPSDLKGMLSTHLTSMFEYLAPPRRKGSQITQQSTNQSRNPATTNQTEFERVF
Sequence of Protein cereblon/Cyclin-dependent kinase 9 (Homo sapiens) (Q96SW2 whole entry, looked up): as the sequence (Q96SW2 whole entry) above

Cc1nnc2n1-c1sc(C#Cc3cnn(CCCC#Cc4cccc5c4CN(C4CCC(=O)NC4=O)C5=O)c3)c(Cc3ccccc3)c1COC2 (stereo not drawn)
IC50 (MOLM-13): 0.062 nM
IC50 (MV4-11): 0.0083 nM
IC50 (RS4-11): 0.032 nM

C[C@@H]1C[C@@H](O)c2ncnc(N3CCN(C(=O)[C@H](CNCCCCCCCCCCCc4cccc5c4CN(C4CCC(=O)NC4=O)C5=O)c4ccc(Cl)cc4)CC3)c21 (stereo partly drawn)
IC50 [1]: 3.5 nM
IC50 [2]: 2 nM

CC(C)Nc1cc(-n2ccc3cc(C#N)cnc32)ccc1C(=O)N[C@H]1CC[C@H](C(=O)NCCOCCNC(=O)COc2cccc3c2C(=O)N(C2CCC(=O)NC2=O)C3=O)CC1 (stereo partly drawn)
Emax [3]: 90%
Kd (Protein cereblon): 490 nM

O=C1CCC(N2C(=O)c3cccc(NCCCCCOCCNC(=O)c4ccc(CN(CC5CCNCC5)Sc5ccc(S(=O)(=O)N(Cc6ccc(Cl)cc6)C6CCCC6)cc5)cc4)c3C2=O)C(=O)N1 (stereo not drawn)
Activity [4]: 85%

CC(=O)c1c(C)c2cnc(Nc3ccc(N4CCN(C(=O)CCCCCNc5cccc6c5C(=O)N(C5CCC(=O)NC5=O)C6=O)CC4)cn3)nc2n(C2CCCC2)c1=O (stereo not drawn)
Activity [5]: 89%
Activity [6]: 75%

COC(=O)C1=CC[C@@]23CC[C@@H]([C@@](C)(/C=C/C=C(\C)C(=O)NCCNc4cccc5c4C(=O)N(C4CCC(=O)NC4=O)C5=O)OC2=O)[C@@]3(OC(C)=O)CC1 (stereo partly drawn)
DC50 (Protein cereblon/Basigin [7]): 6720 nM

CC1(C)CCC(c2ccc(Cl)cc2)=C(CN2CCN(c3ccc(C(=O)NS(=O)(=O)c4ccc(N[C@H](CCN5CCN(C(=O)CCCn6cc(COCCCNc7cccc8c7C(=O)N(C7CCC(=O)NC7=O)C8=O)nn6)CC5)CSc5ccccc5)c(S(=O)(=O)C(F)(F)F)c4)cc3)CC2)C1 (stereo partly drawn)
DC50 [8]: 46 nM
Emax [9]: 96.2%

O=C(CCCCCCC(=O)N/N=C/c1ccc(OCCCC#Cc2cccc3c2CN(C2CCC(=O)NC2=O)C3=O)cc1)NO (stereo not drawn)
DC50 [10]: 1.9 nM

NC(=O)CC[C@H](NC(=O)[C@@H]1CC[C@@H]2CCN(C(=O)CCCCCC#Cc3cccc4c3CN(C3CCC(=O)NC3=O)C4=O)C[C@H](NC(=O)c3cc4cc(C(F)(F)P(=O)(O)O)ccc4[nH]3)C(=O)N21)C(=O)NC(c1ccccc1)c1ccccc1 (stereo partly drawn)
Activity [11]: > 50%
Activity [12]: > 90%
Activity [13]: > 50%
Activity [14]: > 50%

Cc1c(NC(=O)c2ccc(C(C)(C)C)cc2)cccc1-c1cn(C)c(=O)c(Nc2ccc(C(=O)N3CCN(CCCCCCNC(=O)CNc4cccc5c4C(=O)N(C4CCC(=O)NC4=O)C5=O)CC3)cc2)n1 (stereo not drawn)
IC50 [15]: 5.1 nM

CCCCN(Cc1ccc(C(=O)NO)cc1)C(=O)Nc1ccc(NC(=O)CCCc2cn(CCOCCNc3cccc4c3C(=O)N(C3CCC(=O)NC3=O)C4=O)nn2)cc1 (stereo not drawn)
IC50 [16]: 3.2 nM

CCCCN(Cc1ccc(C(=O)NO)cc1)C(=O)Nc1ccc(OCn2cc(CCCCCCCNCc3ccc(-c4cccc5c4CN(C4CCC(=O)NC4=O)C5=O)cc3)nn2)cc1 (stereo not drawn)
DC50 [10]: 1.5 nM

CC(=O)c1c(C)c2cnc(Nc3ccc(N4CCN(C(=O)CNCCCCNC(=O)COc5cccc6c5C(=O)N(C5CCC(=O)NC5=O)C6=O)CC4)cn3)nc2n(C2CCCC2)c1=O (stereo not drawn)
DC50 (Protein cereblon/Basigin [17]): 4.4 nM

O=C1CCC(N2C(=O)c3cccc(OCCCCCOc4ccc(CC(=O)Nc5cc(C6CCC6)[nH]n5)cc4)c3C2=O)C(=O)N1 (stereo not drawn)
Activity [18]: 65%
